{
  "source": "paper PMC10470200",
  "about": "(The Journal of Biological Chemistry, 2023)",
  "key": {"[1]": {"target": "T1, cytochrome P450 3A4 (CYP3A4) (Homo sapiens, UniProt P08684)", "T1 construct": "Δ3-22 CYP3A4", "T1 sequence (P08684 23-503)": "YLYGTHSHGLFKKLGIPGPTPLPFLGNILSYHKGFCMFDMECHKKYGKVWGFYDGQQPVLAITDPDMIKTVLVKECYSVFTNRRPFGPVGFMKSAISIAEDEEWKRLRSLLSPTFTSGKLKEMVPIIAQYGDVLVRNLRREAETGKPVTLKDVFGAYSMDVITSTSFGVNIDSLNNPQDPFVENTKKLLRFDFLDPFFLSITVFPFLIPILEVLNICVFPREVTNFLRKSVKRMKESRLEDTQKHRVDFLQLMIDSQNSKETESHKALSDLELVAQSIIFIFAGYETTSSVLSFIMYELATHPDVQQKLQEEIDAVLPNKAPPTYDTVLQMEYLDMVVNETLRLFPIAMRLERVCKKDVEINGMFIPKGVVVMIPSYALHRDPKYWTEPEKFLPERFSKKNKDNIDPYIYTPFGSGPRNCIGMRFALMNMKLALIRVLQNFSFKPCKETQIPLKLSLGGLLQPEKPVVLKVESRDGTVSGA", "experiment": "equilibrium spectral titration, Hill fit (S50; nH […])", "format": "binding"}, "[2]": {"target": "T2, cytochrome P450 3A4 (CYP3A4) (Homo sapiens, UniProt P08684, F219A)", "T2 construct": "Δ3-22 CYP3A4", "T2 sequence (P08684 23-503 F219A)": "as the sequence (P08684 23-503) above, with F197A counted along it", "experiment": "equilibrium spectral titration, Hill fit (S50; nH […])", "format": "binding"}},
  "data": [
    {"smiles": "CC(=O)[C@H]1CC[C@H]2[C@@H]3CCC4=CC(=O)CC[C@]4(C)[C@H]3CC[C@]12C", "note": "[PRG, progesterone]", "values": [
      {"measurement": "Kd", "setting": "[1]", "result": "103 ± 3", "unit": "µM"},
      {"measurement": "Kd", "setting": "[2]", "result": "158 ± 9", "unit": "µM"}
    ]}
  ]
}
